Assay [1] has as its target T1, human E3 ubiquitin-protein ligase RNF31 (HOIP) (Homo sapiens, UniProt Q96EP0).
T1 sequence (Q96EP0 695-1072 limits assumed): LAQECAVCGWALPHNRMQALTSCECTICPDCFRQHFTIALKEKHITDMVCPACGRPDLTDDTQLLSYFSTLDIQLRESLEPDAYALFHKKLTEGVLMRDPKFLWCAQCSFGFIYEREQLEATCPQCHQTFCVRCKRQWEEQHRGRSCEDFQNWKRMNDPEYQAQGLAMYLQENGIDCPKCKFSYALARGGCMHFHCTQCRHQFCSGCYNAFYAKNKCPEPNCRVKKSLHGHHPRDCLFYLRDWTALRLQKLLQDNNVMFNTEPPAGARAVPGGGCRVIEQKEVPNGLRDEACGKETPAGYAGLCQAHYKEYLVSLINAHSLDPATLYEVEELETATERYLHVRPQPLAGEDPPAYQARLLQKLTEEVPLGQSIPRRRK
As to the kind of experiment: Cell-free HTRF-based HOIP inhibition assay. The assay is classed as biochemical. Summed up: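 HTRF read (ex 337 nm; em 665 and 620 nm) after a 2.5 h, 25° C. ubiquitination step started by adding E2 plus substrates. Before that, E. coli-expressed human HOIP fragment and E1 were incubated 1 h at 25° C. with compound at 100-0.005 μM, 1% DMSO final.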

Assay [2] deals with NF-κB signaling pathway. Description: Cell-based dual luciferase NF-κB reporter assay (HEK293 cells, TNF stimulated). As to conditions: Homo sapiens, HEK293. The method, then:
Dual-luciferase reporter assay was designed to find inhibitors of HOIP affecting NF-κB signaling pathway. The assay was performed in HEK293 cells which were transfected with plasmids coding for Firefly and NanoLuc luciferases. The NanoLuc luciferase plasmid contains NF-κB response element which determines its expression.
The assay was run following standard dual-luciferase protocols. The assay consists of a few steps: • compounds were dispensed at a concentration range: 100-0.005 μM with a final DMSO concentration of 1% of final volume (25 μL); • cells were stimulated after 30 min with 2.5 ng/mL TNF; and • after 6 h Firefly and NanoLuc luciferase activities are determined according to the procedure described by the manufacturer of Nano-Glo Dual-Luciferase Reporter Assay System.
For orientation: In a reporter assay the amount or activity of a reporter protein is the signal.

The subject of assay [3] is bladder carcinoma RT4 cell line. Description: TNF-α-induced cytotoxicity assay (CellTiter-Glo viability). The assay is classed as cell-based. The note with it: Homo sapiens, RT-4, 72 h. The essentials: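 RT4 bladder carcinoma cells, 1000 per well, stimulated with 1.25 ng/mL TNFα together with compound for 72 h at 37° C., 5% CO2. Viability read by CellTiter-Glo luminescence, proportional to cellular ATP, as a measure of HOIP-dependent cytotoxicity.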
(In general: Cellular ATP, detected with luciferase, serves as a proxy for viable cell number.)

Structures can show the parent of a compound that is named as a salt.

A word on the IC50: it is the concentration needed to halve the response being measured. Low readings indicate higher potency, high ones lower potency. Turning to `O=C(NC/C=C/S(=O)(=O)c1ccccc1)c1cc2c([nH]c1=O)CCC(F)(F)C2` [Example 49, N-[(2E)-3-(benzenesulfonyl)prop-2-en-1-yl]-6,6-difluoro-2-oxo-1,2,5,6,7,8-hexahydroquinoline-3-carboxamide], the IC50 in assay [1] was no more than 1000 nM; in assay [2], no more than 10000 nM; in assay [3] it was no more than 10000 nM.

`Cc1ccc(S(=O)(=O)/C=C/CNC(=O)c2cc3c([nH]c2=O)CCCC3)cc1C` [Example 51, N-[(2E)-3-(3,4-dimethylbenzenesulfonyl)prop-2-en-1-yl]-2-oxo-1,2,5,6,7,8-hexahydroquinoline-3-carboxamide]: the IC50 in assay [1], in assay [2] and in assay [3] was no more than 1000 nM in each case.

Take `COc1ccc(S(=N)(=O)/C=C/CNC(=O)c2cc3c([nH]c2=O)CCCC3)cc1OC` (stereo not drawn) [Example 52, N-[(2E)-3-[(3,4-dimethoxyphenyl)(imino)oxo-λ^6-sulfanyl]prop-2-en-1-yl]-2-oxo-1,2,5,6,7,8-hexahydroquinoline-3-carboxamide]: the results for the concentration for half-maximal inhibition (IC50) in assay [1], in assay [2] and in assay [3] were no more than 1000 nM, no more than 10000 nM and no more than 1000 nM, respectively.

Consider `[2H]C([2H])(/C=C/S(=O)(=O)c1ccccc1)NC(=O)c1cc2c([nH]c1=O)CCCC2` [Example 53, N-[(2E)-3-(benzenesulfonyl)(1,1-^2H2)prop-2-en-1-yl]-2-oxo-1,2,5,6,7,8-hexahydroquinoline-3-carboxamide], for which the concentration for half-maximal inhibition (IC50) in assay [1], in assay [2] and in assay [3] was no more than 1000 nM each time.

Regarding `CN(C)c1ccc(S(=O)(=O)/C=C/CNC(=O)c2cc3c([nH]c2=O)CCCC3)cc1` [Example 54, N-[(2E)-3-[4-(dimethylamino)benzenesulfonyl]prop-2-en-1-yl]-2-oxo-1,2,5,6,7,8-hexahydroquinoline-3-carboxamide], the half-maximal inhibitory concentration (IC50) in assay [1], in assay [2] and in assay [3] was no more than 1000 nM throughout.

For the compound `O=C(NC/C=C/S(=O)(=O)c1ccc(C2CC2)cc1)c1cc2c([nH]c1=O)CCCC2` [Example 55, N-[(2E)-3-(4-cyclopropylbenzenesulfonyl)prop-2-en-1-yl]-2-oxo-1,2,5,6,7,8-hexahydroquinoline-3-carboxamide], the half-maximal inhibitory concentration (IC50) in assay [1] is no more than 100 nM; in assay [2] it was no more than 1000 nM; in assay [3] it was no more than 1000 nM.

Take `N#Cc1ccc(S(=O)(=O)/C=C/CNC(=O)c2cc3c([nH]c2=O)CCCC3)cc1` [Example 56, N-[(2E)-3-(4-cyanobenzenesulfonyl)prop-2-en-1-yl]-2-oxo-1,2,5,6,7,8-hexahydroquinoline-3-carboxamide]: the IC50 in assay [1] was no more than 100 nM; in assay [2], no more than 100 nM; in assay [3], no more than 1000 nM.

Consider `Cc1ccc(S(=N)(=O)/C=C/CNC(=O)c2cc3c([nH]c2=O)CCCC3)cc1C` (stereo not drawn) [Example 58, N-[(2E)-3-[(3,4-dimethylphenyl)(imino)oxo-λ^6-sulfanyl]prop-2-en-1-yl]-2-oxo-1,2,5,6,7,8-hexahydroquinoline-3-carboxamide], for which the IC50 was no more than 100 nM in assay [1], no more than 1000 nM in assay [2] and no more than 1000 nM in assay [3].

For the compound `N=S(=O)(/C=C/CNC(=O)c1cc2c([nH]c1=O)CCC(F)(F)C2)c1ccc(F)cc1` (stereo not drawn) [Example 59, 6,6-difluoro-N-[(2E)-3-[(4-fluorophenyl)(imino)oxo-λ^6-sulfanyl]prop-2-en-1-yl]-2-oxo-1,2,5,6,7,8-hexahydroquinoline-3-carboxamide], the IC50 was no more than 1000 nM in assay [1], no more than 10000 nM in assay [2] and no more than 1000 nM in assay [3].

For the compound `N=S(=O)(/C=C/CNC(=O)c1cc2c([nH]c1=O)CCCC2)c1ccccc1` (stereo not drawn) [Example 60, N-[(2E)-3-[imino(oxo)phenyl-λ^6-sulfanyl]prop-2-en-1-yl]-2-oxo-1,2,5,6,7,8-hexahydroquinoline-3-carboxamide], the figures for the IC50 in assay [1], in assay [2] and in assay [3] were no more than 1000 nM, no more than 1000 nM and no more than 10000 nM, respectively.

With `COc1c(C)cc(S(=N)(=O)/C=C/CNC(=O)c2cc3c([nH]c2=O)CCCC3)cc1C` (stereo not drawn) [Example 63, N-[(2E)-3-[Imino(4-methoxy-3,5-dimethylphenyl)oxo-λ^6-sulfanyl]prop-2-en-1-yl]-2-oxo-1,2,5,6,7,8-hexahydroquinoline-3-carboxamide], the IC50 in assay [1], in assay [2] and in assay [3] was no more than 1000 nM each time.

With `COc1cccc(S(=N)(=O)/C=C/CNC(=O)c2cc3c([nH]c2=O)CCCC3)c1` (stereo not drawn) [Example 64, N-[(2E)-3-[imino(3-methoxyphenyl)oxo-λ^6-sulfanyl]prop-2-en-1-yl]-2-oxo-1,2,5,6,7,8-hexahydroquinoline-3-carboxamide], the IC50 in assay [1], in assay [2] and in assay [3] was no more than 1000 nM throughout.

On to `N=S(=O)(/C=C/CNC(=O)c1cc2c([nH]c1=O)CCCC2)c1ccc(OC(F)(F)F)cc1` (stereo not drawn) [Example 65, N-[(2E)-3-[imino(oxo)[4-(trifluoromethoxy)phenyl]-%^6-sulfanyl]prop-2-en-1-yl]-2-oxo-1,2,5,6,7,8-hexahydroquinoline-3-carboxamide], for which the IC50 in assay [1], in assay [2] and in assay [3] was no more than 1000 nM each time.

On to `O=C(NC/C=C/S(=O)(=O)c1ccccc1)c1cc2c([nH]c1=O)CCNC2` [Example 66, N-[(2E)-3-(benzenesulfonyl)prop-2-en-1-yl]-2-oxo-1,2,5,6,7,8-hexahydro-1,6-naphthyridine-3-carboxamide hydrochloride], for which the IC50 in assay [1], in assay [2] and in assay [3] was no more than 10000 nM throughout.

For `O=C(NC/C=C/S(=O)(=O)c1ccccc1)c1cc2c([nH]c1=O)CCN(C(=O)OC1COC1)C2` [Example 67, oxetan-3-yl 3-{[(2E)-3-(benzenesulfonyl)prop-2-en-1-yl]carbamoyl}-2-oxo-1,2,5,6,7,8-hexahydro-1,6-naphthyridine-6-carboxylate], the IC50 in assay [1] is no more than 1000 nM; in assay [2], no more than 10000 nM; in assay [3] it was no more than 100000 nM.

For the compound `N=S(=O)(/C=C/CNC(=O)c1cc2c([nH]c1=O)CCN(C(=O)OCC1CC1)C2)c1ccc(F)cc1` (stereo not drawn) [Example 68, cyclopropylmethyl 3-{[(2E)-3-[(4-fluorophenyl)(imino)oxo-A*-sulfanyl]prop-2-en-1-yl]carbamoyl}-2-oxo-1,2,5,6,7,8-hexahydro-1,6-naphthyridine-6-carboxylate], the IC50 in assay [1] was no more than 100 nM; in assay [2], no more than 10000 nM; in assay [3], no more than 10000 nM.

As for `O=C(NC/C=C/S(=O)(=O)c1ccccc1)c1cc2c([nH]c1=O)CCN(C(=O)OCC1CC1)C2` [Example 69, cyclopropylmethyl 3-{[(2E)-3-(benzenesulfonyl)prop-2-en-1-yl]carbamoyl}-2-oxo-1,2,5,6,7,8-hexahydro-1,6-naphthyridine-6-carboxylate], the IC50 in assay [1] is no more than 100 nM; in assay [2], no more than 1000 nM; in assay [3], no more than 1000 nM.

Regarding `O=C(NC/C=C/S(=O)(=O)c1ccccc1)c1cc2c([nH]c1=O)CCN(C(=O)OC1CCC1)C2` [Example 70, cyclobutyl 3-{[(2E)-3-(benzenesulfonyl)prop-2-en-1-yl]carbamoyl}-2-oxo-1,2,5,6,7,8-hexahydro-1,6-naphthyridine-6-carboxylate], the IC50 is no more than 100 nM in assay [1], no more than 1000 nM in assay [2] and no more than 1000 nM in assay [3].

Consider `Cc1nnc(COC(=O)N2CCc3[nH]c(=O)c(C(=O)NC/C=C/S(=O)(=O)c4ccccc4)cc3C2)o1` [Example 71, (5-methyl-1,3,4-oxadiazol-2-yl)methyl 3-{[(2E)-3-(benzenesulfonyl)prop-2-en-1-yl]carbamoyl}-2-oxo-1,2,5,6,7,8-hexahydro-1,6-naphthyridine-6-carboxylate], for which the IC50 was no more than 1000 nM in assay [1], no more than 100000 nM in assay [2] and no more than 100000 nM in assay [3].

With `CC(OC(=O)N1CCc2[nH]c(=O)c(C(=O)NC/C=C/S(=O)(=O)c3ccccc3)cc2C1)C(F)(F)F` (stereo not drawn) [Example 72, 1,1,1-trifluoropropan-2-yl 3-{[(2E)-3-(benzenesulfonyl)prop-2-en-1-yl]carbamoyl}-2-oxo-1,2,5,6,7,8-hexahydro-1,6-naphthyridine-6-carboxylate], the IC50 in assay [1], in assay [2] and in assay [3] was no more than 1000 nM in each case.

In the case of `CC1(C)CC1COC(=O)N1CCc2[nH]c(=O)c(C(=O)NC/C=C/S(=O)(=O)c3ccccc3)cc2C1` (stereo not drawn) [Example 73, (2,2-dimethylcyclopropyl)methyl 3-{[(2E)-3-(benzenesulfonyl)prop-2-en-1-yl]carbamoyl}-2-oxo-1,2,5,6,7,8-hexahydro-1,6-naphthyridine-6-carboxylate], the figures for the IC50 in assay [1], in assay [2] and in assay [3] were no more than 100 nM, no more than 1000 nM and no more than 1000 nM, respectively.
